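These data come from cells grown in 96-well plates and exposed to compound for 48 hours at five concentrations. GI50 is the concentration that inhibits growth by half.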 Activity calls are given as the source filed them. Cut-off read from the data, not from the text of the source: active = GI50 up to about 1.1 µM and inactive = higher.
How the values were obtained:
Assay in all cases: NCI anticancer screen, dose series, 48 h
K562 = test system: K562
PC-3 = test system: PC-3
HCT-116 = test system: HCT-116
SK-MEL-5 = test system: SK-MEL-5
OVCAR-8 = test system: OVCAR-8
A498 = test system: A498
A549 = test system: A549
MCF7 = test system: MCF7
COLO 205 = test system: COLO 205
SK-OV-3 = test system: SK-OV-3
SF-295 = test system: SF-295
UACC-257 = test system: UACC-257
M14 = test system: M14
SN12C = test system: SN12C
DU-145 = test system: DU-145
UACC-62 = test system: UACC-62
HT-29 = test system: HT-29
SR = test system: SR
LOX IMVI = test system: LOX IMVI
NCI-H23 = test system: NCI-H23
CCRF-CEM = test system: CCRF-CEM
SF-268 = test system: SF-268
CAKI-1 = test system: CAKI-1
RXF 393 = test system: RXF 393
NCI-H522 = test system: NCI-H522
HCT-15 = test system: HCT-15
NCI/ADR-RES = test system: NCI/ADR-RES
UO-31 = test system: UO-31
OVCAR-4 = test system: OVCAR-4
RPMI-8226 = test system: RPMI-8226
SK-MEL-28 = test system: SK-MEL-28
HOP-92 = test system: HOP-92
SNB-19 = test system: SNB-19
SW-620 = test system: SW-620
MDA-MB-231 = test system: MDA-MB-231
MDA-MB-435 = test system: MDA-MB-435
U-251 = test system: U-251
786-0 = test system: 786-0
HCC 2998 = test system: HCC 2998
KM12 = test system: KM12
NCI-H460 = test system: NCI-H460
SK-MEL-2 = test system: SK-MEL-2
OVCAR-5 = test system: OVCAR-5
TK-10 = test system: TK-10
NCI-H226 = test system: NCI-H226
ACHN = test system: ACHN
MDA-N = test system: MDA-N
MOLT-4 = test system: MOLT-4
IGROV-1 = test system: IGROV-1
HOP-62 = test system: HOP-62
HL-60 = test system: HL-60
Hs-578T = test system: Hs-578T
SNB-75 = test system: SNB-75
EKVX = test system: EKVX
SF-539 = test system: SF-539
Malme-3M = test system: Malme-3M

## O=C1CSc2nc3ccccc3n2/C=N\N1
K562
  GI50: > 100 µM (inactive)
PC-3
  GI50: > 100 µM (inactive)
HCT-116
  GI50: > 100 µM (inactive)
SK-MEL-5
  GI50: > 100 µM (inactive)
OVCAR-8
  GI50: > 100 µM (inactive)
A498
  GI50: > 100 µM (inactive)
A549
  GI50: > 100 µM (inactive)
MCF7
  GI50: > 100 µM (inactive)
COLO 205
  GI50: > 100 µM (inactive)
SK-OV-3
  GI50: > 100 µM (inactive)
SF-295
  GI50: > 100 µM (inactive)
UACC-257
  GI50: > 100 µM (inactive)
M14
  GI50: > 100 µM (inactive)
SN12C
  GI50: > 100 µM (inactive)
DU-145
  GI50: > 100 µM (inactive)
UACC-62
  GI50: > 100 µM (inactive)
HT-29
  GI50: > 100 µM (inactive)
SR
  GI50: > 100 µM (inactive)
LOX IMVI
  GI50: > 100 µM (inactive)
NCI-H23
  GI50: > 100 µM (inactive)
CCRF-CEM
  GI50: > 100 µM (inactive)
SF-268
  GI50: > 100 µM (inactive)
CAKI-1
  GI50: > 100 µM (inactive)
RXF 393
  GI50: > 100 µM (inactive)
NCI-H522
  GI50: > 100 µM (inactive)
HCT-15
  GI50: > 100 µM
NCI/ADR-RES
  GI50: > 100 µM (inactive)
UO-31
  GI50: > 100 µM (inactive)
OVCAR-4
  GI50: > 100 µM (inactive)
RPMI-8226
  GI50: > 100 µM (inactive)
SK-MEL-28
  GI50: > 100 µM (inactive)
HOP-92
  GI50: > 100 µM (inactive)
SNB-19
  GI50: > 100 µM (inactive)
SW-620
  GI50: > 100 µM (inactive)
MDA-MB-231
  GI50: > 100 µM (inactive)
MDA-MB-435
  GI50: > 100 µM (inactive)
U-251
  GI50: > 100 µM (inactive)
786-0
  GI50: > 100 µM (inactive)
HCC 2998
  GI50: > 100 µM (inactive)
KM12
  GI50: > 100 µM (inactive)
NCI-H460
  GI50: > 100 µM (inactive)
SK-MEL-2
  GI50: > 100 µM (inactive)
OVCAR-5
  GI50: > 100 µM (inactive)
TK-10
  GI50: > 100 µM (inactive)
NCI-H226
  GI50: > 100 µM (inactive)
ACHN
  GI50: > 100 µM (inactive)
MDA-N
  GI50: > 100 µM (inactive)
MOLT-4
  GI50: > 100 µM (inactive)

## N#Cc1nc(-c2ccsc2)oc1N
IGROV-1
  GI50: 71.8 µM (inactive)
K562
  GI50: > 100 µM (inactive)
PC-3
  GI50: > 100 µM (inactive)
HCT-116
  GI50: > 100 µM (inactive)
SK-MEL-5
  GI50: > 100 µM (inactive)
OVCAR-8
  GI50: > 100 µM (inactive)
A498
  GI50: > 100 µM (inactive)
A549
  GI50: > 100 µM (inactive)
MCF7
  GI50: > 100 µM (inactive)
SK-OV-3
  GI50: > 100 µM (inactive)
UACC-257
  GI50: > 100 µM (inactive)
M14
  GI50: > 100 µM (inactive)
SN12C
  GI50: > 100 µM (inactive)
DU-145
  GI50: > 100 µM (inactive)
UACC-62
  GI50: > 100 µM (inactive)
HT-29
  GI50: > 100 µM (inactive)
SR
  GI50: > 100 µM (inactive)
LOX IMVI
  GI50: > 100 µM (inactive)
CCRF-CEM
  GI50: > 100 µM (inactive)
HOP-62
  GI50: > 100 µM (inactive)
SF-268
  GI50: > 100 µM (inactive)
CAKI-1
  GI50: > 100 µM (inactive)
RXF 393
  GI50: > 100 µM (inactive)
HCT-15
  GI50: > 100 µM
HL-60
  GI50: > 100 µM (inactive)
UO-31
  GI50: 64.1 µM (inactive)
Hs-578T
  GI50: > 100 µM (inactive)
RPMI-8226
  GI50: 77.4 µM (inactive)
SK-MEL-28
  GI50: > 100 µM (inactive)
HOP-92
  GI50: > 100 µM (inactive)
SNB-19
  GI50: > 100 µM (inactive)
SW-620
  GI50: > 100 µM (inactive)
MDA-MB-231
  GI50: > 100 µM (inactive)
MDA-MB-435
  GI50: > 100 µM (inactive)
U-251
  GI50: > 100 µM (inactive)
786-0
  GI50: > 100 µM (inactive)
KM12
  GI50: > 100 µM (inactive)
SK-MEL-2
  GI50: > 100 µM (inactive)
OVCAR-5
  GI50: > 100 µM (inactive)
TK-10
  GI50: > 100 µM (inactive)
SNB-75
  GI50: 57 µM (inactive)
ACHN
  GI50: > 100 µM (inactive)
EKVX
  GI50: > 100 µM (inactive)
MDA-N
  GI50: > 100 µM (inactive)
MOLT-4
  GI50: > 100 µM (inactive)

## COc1cc(O)c2c(=O)cc(-c3ccc(O)cc3O)oc2c1CC=C(C)C [ARTOCARPETIN A]
IGROV-1
  GI50: 20.3 µM (inactive)
K562
  GI50: 17 µM (inactive)
PC-3
  GI50: 12.9 µM (inactive)
HCT-116
  GI50: 18.1 µM (inactive)
SK-MEL-5
  GI50: 18.3 µM (inactive)
OVCAR-8
  GI50: 16.9 µM (inactive)
A498
  GI50: 22.1 µM (inactive)
A549
  GI50: 14.2 µM (inactive)
MCF7
  GI50: 20.3 µM (inactive)
COLO 205
  GI50: 9.25 µM (inactive)
SF-295
  GI50: 12.9 µM (inactive)
UACC-257
  GI50: 28.4 µM (inactive)
M14
  GI50: 13.8 µM (inactive)
SN12C
  GI50: 16.4 µM (inactive)
DU-145
  GI50: 30.2 µM (inactive)
UACC-62
  GI50: 20 µM (inactive)
HT-29
  GI50: 4.35 µM (inactive)
SR
  GI50: 4.5 µM (inactive)
LOX IMVI
  GI50: 11.9 µM (inactive)
NCI-H23
  GI50: 17.6 µM (inactive)
CCRF-CEM
  GI50: 15.4 µM (inactive)
SF-268
  GI50: 17.4 µM (inactive)
CAKI-1
  GI50: 17.1 µM (inactive)
RXF 393
  GI50: 6.3 µM (inactive)
NCI-H522
  GI50: 16 µM (inactive)
HCT-15
  GI50: 11.6 µM
NCI/ADR-RES
  GI50: 27 µM (inactive)
SF-539
  GI50: 18.1 µM (inactive)
HL-60
  GI50: 10.4 µM (inactive)
Malme-3M
  GI50: 16.3 µM (inactive)
UO-31
  GI50: 17.9 µM (inactive)
Hs-578T
  GI50: 28.4 µM (inactive)
OVCAR-4
  GI50: 13.1 µM (inactive)
RPMI-8226
  GI50: 20.3 µM (inactive)
SK-MEL-28
  GI50: 29.1 µM (inactive)
HOP-92
  GI50: 19.6 µM (inactive)
SNB-19
  GI50: 18.3 µM (inactive)
SW-620
  GI50: 24.3 µM (inactive)
MDA-MB-231
  GI50: 22.1 µM (inactive)
MDA-MB-435
  GI50: 18.7 µM (inactive)
U-251
  GI50: 17.1 µM (inactive)
786-0
  GI50: 26.6 µM (inactive)
KM12
  GI50: 6.12 µM (inactive)
NCI-H460
  GI50: 14.3 µM (inactive)
SK-MEL-2
  GI50: 17.2 µM (inactive)
OVCAR-5
  GI50: > 100 µM (inactive)
TK-10
  GI50: 27.7 µM (inactive)
NCI-H226
  GI50: 12.2 µM (inactive)
SNB-75
  GI50: 20.7 µM (inactive)
ACHN
  GI50: 16.3 µM (inactive)
EKVX
  GI50: 26.1 µM (inactive)
MDA-N
  GI50: 19.3 µM (inactive)
MOLT-4
  GI50: 8.93 µM (inactive)

Reference: ChEMBL document CHEMBL1201862, “PubChem BioAssay data set” (2004)
